Data set [1] relates to BEAS-2B cell line. Description: Mitophagy activity with mt-Keima fluorescent protein in BEAS-2B cells (flow cytometry / confocal microscope). The data set is classed as cell-based, human. The text has this:
(§1) To analyze the mitophagy-promoting activity effect of the isoquinoline derivative compound synthesized in the Example 1 (hereinafter, CD1-012), a quantification method for mitophagy activity, using a mt-Keima fluorescent protein, was utilized, which can measure the mitophagy activity in living cells through flow cytometry or a confocal microscope.
To analyze the mitophagy-promoting activity effect of CD1-012 synthesized in Example 1, the BEAS-2B cell line, which is a human normal lung cell line, was induced to express the mt-Keima fluorescent protein. Following this, the CD1-012 (15 μM) and the compound of Comparative Example 1, CCCP (10 μM), were treated for 24 hours. After the treatment, the mitophagy activity of each sample was measured, and the results were represented in FIG. 1.
Specifically, FIG. 1A represents the analysis results using flow cytometry (FACS), FIG. 1B represents the analysis results using a confocal microscope, and FIG. 1C represents the measurement results of the quantitative changes in the mitochondria using a fluorescent protein, mito-YFP, which includes a targeting sequence to transport protein to the mitochondria.
To analyze whether CD1-012 synthesized in Example 1 promotes mitophagy activity in a concentration and time-dependent manner, the BEAS-2B cell line expressing mt-Keima was treated with varying concentrations of CD1-012 or a constant concentration (15 μM) for different durations. The mitophagy activity was then measured using flow cytometry, with the concentration-dependent mitophagy activity results represented in FIG. 3A and the time-dependent mitophagy activity results in FIG. 3B.
(§2) To confirm whether the synthesized CD1-012 in Example 1 specifically increases mitophagy activity, the CD1-012 (15 μM) of the Example 1 and the CCCP (10 μM) of Comparative Example 1 were treated to the BEAS-2B cell line expressing mt-Keima for 18 hours. Subsequently, the mitophagy activity was analyzed using a confocal microscope, and the results were represented in FIG. 4A. Moreover, the BEAS-2B cell line expressing Keima fluorescent protein was cultured in HBSS (Hanks' balanced salts solution) for 3 hours to induce a nutrient-deficient state (starvation, starv.). The autophagy activity was measured by comparing the sample treated with the CD1-012 (15 μM) for hours using a confocal microscope, and the results were represented in FIG. 4B.
The mitophagy-promoting activity effect of each sample was compared, and the results were represented in FIG. 5.

Data set [2] has as its system mitochondrial reactive oxygen species (ROS). Description: Mitochondrial reactive oxygen species, MitoSOX assay. Format: cell-based. The following applies: CD1-012 10 μM or 15 μM, CCCP 10 μM, FIG. 6. The procedure: (§3) To determine if the CD1-012 synthesized in Example 1 induces mitochondrial dysfunction similar to CCCP of Comparative Example 1, the CD1-012 (10 μM or 15 μM) and the CCCP (10 μM) were treated for hours. Afterward, the mitochondrial membrane potential and the level of mitochondrial reactive oxygen species (ROS) of each sample were analyzed, and the results were represented in FIG. 6.
(§4) The mitochondrial membrane potential was analyzed using the TMRM (tetramethylrhodamine methyl ester) assay, and the mitochondrial ROS was analyzed using the MitoSOX assay.

Data set [3] concerns PINK1 knockdown cells (shPINK1), BEAS-2B. Nature of the data set: Mitophagy activity in PINK1 knockdown (shPINK1) BEAS-2B cells (FACS). Format: cell-based, human. The following applies: CCCP 10 μM, CD1-012 15 μM, 18 hours, FIG. 7. The procedure:
In order to analyze whether the activation of mitophagy by the CD1-012 synthesized in Example 1 is dependent on the PINK1-Parkin pathway, the PINK 1 was knockdown using short hairpin RNA (shRNA) in BEAS-2B cell lines. Then, CCCP (10 μM) from Comparative Example 1 and the CD1-012 (15 μM) were treated for 18 hours, and the mitophagy activity of each sample was analyzed using a flow cytometry (FACS) and represented in FIG. 7.

Data set [4] concerns mitochondrial membrane potential. Nature of the data set: Mitochondrial membrane potential, TMRM assay. Format: cell-based. The following applies: CD1-012 10 μM or 15 μM, CCCP 10 μM, FIG. 6. The procedure:
as §3, §4

Data set [5] deals with APP/PS2 mice. Nature of the data set: Morris water maze test in Alzheimer's disease mouse model. Format: in vivo. The following applies: for memory capabilities, free-swimming analysis on the 7th day: intranasal, every day for 4 weeks, CD1-012 1 mg/Kg, palmatine 10 mg/Kg, FIG. 10. The procedure: Subsequently, to analyze the representative symptom improvement effect of Alzheimer's disease, spatial learning and memory abilities were measured through the Morris water maze test (represented in FIG. 10, 9-10 mice per group). During the behavior test, from day 1 to day 6, training was conducted, where the time taken from the start to climb the escape stand was measured 4 times. On the 7th day, free-swimming test was conducted for 60 seconds, and the time spent in the area where the escape stand was located during training was measured to analyze the learning and memory abilities of the experimental animals. The results were represented in […].
For the purpose of comparing the treatment effect of the CD1-012 synthesized in Example 1 with that of palmatine in Comparative Example 2 on an Alzheimer's disease animal model, APP/PS2 mice were intranasally administered with the CD1-012 at a concentration of 1 mg/Kg and palmatine at 10 mg/Kg every day for 4 weeks. The treatment effects on dementia were confirmed with a water maze test, and the results were represented in FIG. 10 (9-10 mice per group).

In data set [6] the test system is HeLa cervical cancer cell line (Hela-Parkin). Nature of the data set: Mitophagy activity in HeLa-Parkin cells (FACS). Format: cell-based. The following applies: FIG. 2B.
Excerpt: as §1
(§5) To determine whether CD1-012 synthesized in Example 1 enhances mitophagy activity in various cell lines, the human neuroblastoma cell line, SH-SY5Y, expressing mt-Keima fluorescent protein and HeLa cervical cancer cell line (Hela-Parkin) expressing Parkin (E3ligase) were treated with CD1-012 and CCCP of Comparative Example 1. Following this treatment, the mitophagy activity of each sample was analyzed using flow cytometry (FACS), and the results were represented in FIG. 2.
(§6) Specifically, FIG. 2A represents the analysis results for the SH-SY5Y cell line, and FIG. 2B represents the analysis results for the HeLa-Parkin cell line.

In data set [7] the test system is SH-SY5Y overexpressing APPswd/ind protein. Nature of the data set: ATP generation level in Alzheimer's disease cell model. Format: cell-based, human. The following applies: CD1-012 20 μM, measured 48 hours later, FIG. 8. The procedure: To verify whether the CD1-012 synthesized in Example 1 improves mitochondrial dysfunction in the Alzheimer's disease cell model, the human neuron cell line SH-SY5Y was overexpressed with APPswd/ind protein causing Alzheimer's disease to prepare the Alzheimer's disease cell model. After treating the cell model with the CD1-012 (20 μM) for hours, the ATP generation level, an indicator of mitochondrial function, was measured 48 hours later and the results were represented in FIG. 8.

For data set [8], the system named is BEAS-2B cell line. Nature of the data set: Autophagy activity in BEAS-2B cells expressing Keima fluorescent protein (confocal microscope). Format: cell-based, human. The following applies: CD1-012 15 μM; compared with HBSS starvation 3 hours; FIG. 4B. The procedure:
as §2

For data set [9], the system named is SH-SY5Y. Description: Mitophagy activity in SH-SY5Y cells expressing mt-Keima (FACS). Format: cell-based, human. The following applies: FIG. 2A.
Excerpt: as §1, §5, §6

The mark [10] stands for this setting: APP/PS2 mice, 1 mg/kg every day for 4 weeks, nasal administration, FIG. 9.
Where [11] appears, read: BEAS-2B mt-Keima, flow cytometry, FIG. 3A.

Each structure is given as a SMILES string.

As for `COc1ccc2cc3[n+](cc2c1OC)CCc1cc2c(cc1-3)OCO2` [berberine, Berberine, reference compound], the “concentration at which maximum mitophagy activity was reached” value in [1] (BEAS-2B mt-Keima, FIG. 5) stood at 80 µM.
`N#CC(C#N)=NNc1cccc(Cl)c1` [CCCP, Carbonyl Cyanide 3-chlorophenylhydrazone, reference compound]: the “mitochondrial ROS” value in data set [2] is recorded as “significantly increased mitochondrial ROS”. Moreover, the “mitophagy activation in shPINK1 cells compared to the control cell line (shNT)” value in data set [3] is given as “significantly decreased”. For the same molecule, the mitochondrial membrane potential entry in data set [4] is “significantly reduced the mitochondrial membrane potential”.
Consider `COc1cc2c(cc1OC)-c1cc3ccc(OC)c(OC)c3c[n+]1CC2` [palmatine, Palmatine, reference compound], for which the “memory capabilities, free-swimming analysis on the 7th day” value in data set [5] (APP/PS2 mice) was “improved similarly”. The “concentration at which maximum mitophagy activity was reached” value in data set [1] (BEAS-2B mt-Keima, FIG. 5) turned out to be 400 µM.
Take `Oc1cc2c(cc1O)-c1cc3ccc(O)c(O)c3c[n+]1CC2` [CD1-012, 2,3,9,10-Tetrahydroxy-5,6-dihydroisoquinolino[3,2-a]isoquinolin-7-iumbromide]: in data set [5] (1 mg/Kg vs 10 mg/Kg palmatine), the “concentration for similar dementia treatment effect, times lower than that of palmatine” value worked out at 10 times. Also, in [5] (setting [10]), the “learning effect (escape latency) during 6 days of training” value is “learning effect from day 3 to day 6” and the “time spent near the escape platform, free-swimming analysis on the 7th day” value was “recovered close to that of normal mice”. Further, the “memory capabilities, free-swimming analysis on the 7th day” value in [5] (APP/PS2 mice) is “improved similarly”. Besides, in [6], the “mitophagy activity compared to the control group” value was “significant increase in mitophagy activity”. Besides, in data set [7], the ATP production level entry was “recover and increase”. In [2], the “mitochondrial ROS” value is listed as “did not increase mitochondrial ROS”. In addition, in data set [3], the “mitophagy activation in shPINK1 cells compared to the control cell line (shNT)” value is listed as “did not show any significant difference”. The autophagy activity entry in data set [8] is “did not increase autophagy activity”. Further, the “mitophagy activity compared to the control group” value in [9] is given as “significant increase in mitophagy activity”. Besides, in data set [4], the mitochondrial membrane potential entry is “did not observe a decrease in the mitochondrial membrane potential”. For the same molecule, the “time from which a significant increase in mitophagy activity was observed” value in data set [1] (BEAS-2B mt-Keima, 15 μM, flow cytometry, FIG. 3B) turned out to be 3 h. Also, the “concentration exhibiting mitophagy activity similar to the maximum of the comparators” value in [1] (BEAS-2B mt-Keima, FIG. 5) is 10 µM. In [1] (setting [11]), the “concentration from which mitophagy activity began to significantly increase” value is 7.5 µM and the “concentration up to which mitophagy activity continued to increase concentration-dependently” value came to 17.5 µM. Also, the “mitophagy activity compared to the untreated control group” value in data set [1] (BEAS-2B mt-Keima, CD1-012 15 μM, 24 hours, FIG. 1) is reported as “significant increase in mitophagy activity”. In addition, in [1] (flow cytometry (FIG. 1A), CD1-012 15 μM vs CCCP 10 μM, 24 hours), the “mitophagy activity compared with CCCP-treated sample” value is “increased as significantly as that of the sample treated with the representative mitophagy promoting compound, CCCP”. Moreover, in data set [1] (from FIG. 5 concentrations), the “mitophagy-promoting activity effect, times better than berberine” value was “approximately 8 times” and the “mitophagy-promoting activity effect, times better than palmitate” value was “about 40 times”.

The values above are taken from patent publication US20240150341A1, “COMPOSITION FOR PREVENTING OR TREATING DISEASES CAUSED BY MITOCHONDRIAL DYSFUNCTION, CONTAINING ISOQUINOLINE DERIVATIVE COMPOUND AS ACTIVE INGREDIENT” (ALTMEDICALCO., LTD., priority 2021, published 2024).
